Here are results for 5 compounds from the supplement of paper PMC10307832.

For the first test, the system named is NCI-H2085. The experiment in a line: relative viability (nuclei count vs DMSO), 5 days (fraction); higher = more cells survive. Particulars: first compound 0.8 µM. In outline:
(§1)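 Cells from lung cancer lines were seeded into 1536-well plates and, one day later, dosed by pin tool. Treatments were either a single drug or a fixed dose of an anchor drug with five library-drug doses (not always all listed) in √10 steps. After 5 days, nuclei were stained in a one-step fixation (final 0.05% Triton X-100, 1% formaldehyde, 1 ug/ml Hoechst) and counted on 4× images, and relative viability is the treated-to-vehicle nuclei ratio, as the median of duplicate plates.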
With `Oc1nc(-c2ccc(C(F)(F)F)cc2)nc2c1CSCC2` [XAV939] + CC(=O)c1c(C)c2cnc(Nc3ccc(N4CCNCC4)cn3)nc2n(C2CCCC2)c1=O [Palbociclib] (partner 0.5 µM), the relative viability turned out to be 0.491.

Turning to `C=C1C(=O)O[C@@H](CCCCCCCC)[C@@H]1C(=O)O` [C-75] + CC(=O)c1c(C)c2cnc(Nc3ccc(N4CCNCC4)cn3)nc2n(C2CCCC2)c1=O [Palbociclib] (partner 0.5 µM), the relative viability is 0.443.

Staying with this test, now noted: first compound 2.53 µM.
Regarding `Oc1nc(-c2ccc(C(F)(F)F)cc2)nc2c1CSCC2` [XAV939] + O=C(CCCCCCC(=O)Nc1ccccc1)NO [Vorinostat] (partner 1 µM), the relative viability came out at 0.716.

Consider `C=C1C(=O)O[C@@H](CCCCCCCC)[C@@H]1C(=O)O` [C-75] + Nc1nc2[nH]cc(CCc3ccc(C(=O)N[C@@H](CCC(=O)O)C(=O)O)cc3)c2c(=O)[nH]1 [Pemetrexed] (partner 0.2 µM), for which the relative viability turned out to be 0.788.

The compound `Oc1nc(-c2ccc(C(F)(F)F)cc2)nc2c1CSCC2` [XAV939] + O=C(c1cc(Cc2n[nH]c(=O)c3ccccc23)ccc1F)N1CCN(C(=O)C2CC2)CC1 [Olaparib] (partner 8 µM) had a relative viability of 0.761.

`Oc1nc(-c2ccc(C(F)(F)F)cc2)nc2c1CSCC2` [XAV939] + CC(=O)c1c(C)c2cnc(Nc3ccc(N4CCNCC4)cn3)nc2n(C2CCCC2)c1=O [Palbociclib] (partner 0.5 µM) had a relative viability of 0.451.

The compound `C=C1C(=O)O[C@@H](CCCCCCCC)[C@@H]1C(=O)O` [C-75] + CC(=O)c1c(C)c2cnc(Nc3ccc(N4CCNCC4)cn3)nc2n(C2CCCC2)c1=O [Palbociclib] (partner 0.5 µM) returned a relative viability of 0.436.

The same test, now with this note: first compound 8 µM.
As to `C=C1C(=O)O[C@@H](CCCCCCCC)[C@@H]1C(=O)O` [C-75] + Nc1nc2[nH]cc(CCc3ccc(C(=O)N[C@@H](CCC(=O)O)C(=O)O)cc3)c2c(=O)[nH]1 [Pemetrexed] (partner 0.2 µM), the relative viability amounted to 0.902.

Compound `C=C1C(=O)O[C@@H](CCCCCCCC)[C@@H]1C(=O)O` [C-75] + CC(=O)c1c(C)c2cnc(Nc3ccc(N4CCNCC4)cn3)nc2n(C2CCCC2)c1=O [Palbociclib] (partner 0.5 µM) displayed a relative viability of 0.468.

In another test the test system is NCI-H2126. The test is described as above. The conditions noted are these: first compound 0.08 µM. In outline: as §1
In turn, `Oc1nc(-c2ccc(C(F)(F)F)cc2)nc2c1CSCC2` [XAV939] + O=C(CCCCCCC(=O)Nc1ccccc1)NO [Vorinostat] (partner 1 µM) came in with a relative viability of 0.835.

With `C=C1C(=O)O[C@@H](CCCCCCCC)[C@@H]1C(=O)O` [C-75] + Nc1nc2[nH]cc(CCc3ccc(C(=O)N[C@@H](CCC(=O)O)C(=O)O)cc3)c2c(=O)[nH]1 [Pemetrexed] (partner 0.2 µM), the relative viability was found to be 0.727.

`Oc1nc(-c2ccc(C(F)(F)F)cc2)nc2c1CSCC2` [XAV939] + O=C(c1cc(Cc2n[nH]c(=O)c3ccccc23)ccc1F)N1CCN(C(=O)C2CC2)CC1 [Olaparib] (partner 8 µM) yielded a relative viability of 0.962.

Compound `Oc1nc(-c2ccc(C(F)(F)F)cc2)nc2c1CSCC2` [XAV939] + CC(=O)c1c(C)c2cnc(Nc3ccc(N4CCNCC4)cn3)nc2n(C2CCCC2)c1=O [Palbociclib] (partner 0.5 µM) yielded a relative viability of 0.301.

As to `C=C1C(=O)O[C@@H](CCCCCCCC)[C@@H]1C(=O)O` [C-75] + CC(=O)c1c(C)c2cnc(Nc3ccc(N4CCNCC4)cn3)nc2n(C2CCCC2)c1=O [Palbociclib] (partner 0.5 µM), the relative viability is 0.348.

The same test, now with this note: first compound 0.253 µM.
With `Oc1nc(-c2ccc(C(F)(F)F)cc2)nc2c1CSCC2` [XAV939] + O=C(CCCCCCC(=O)Nc1ccccc1)NO [Vorinostat] (partner 1 µM), the relative viability was 0.587.

With `C=C1C(=O)O[C@@H](CCCCCCCC)[C@@H]1C(=O)O` [C-75] + Nc1nc2[nH]cc(CCc3ccc(C(=O)N[C@@H](CCC(=O)O)C(=O)O)cc3)c2c(=O)[nH]1 [Pemetrexed] (partner 0.2 µM), the relative viability is 0.681.

`Oc1nc(-c2ccc(C(F)(F)F)cc2)nc2c1CSCC2` [XAV939] + O=C(c1cc(Cc2n[nH]c(=O)c3ccccc23)ccc1F)N1CCN(C(=O)C2CC2)CC1 [Olaparib] (partner 8 µM) gave a relative viability of 0.839.

`Oc1nc(-c2ccc(C(F)(F)F)cc2)nc2c1CSCC2` [XAV939] + CC(=O)c1c(C)c2cnc(Nc3ccc(N4CCNCC4)cn3)nc2n(C2CCCC2)c1=O [Palbociclib] (partner 0.5 µM) registered a relative viability of 0.352.

`C=C1C(=O)O[C@@H](CCCCCCCC)[C@@H]1C(=O)O` [C-75] + CC(=O)c1c(C)c2cnc(Nc3ccc(N4CCNCC4)cn3)nc2n(C2CCCC2)c1=O [Palbociclib] (partner 0.5 µM) displayed a relative viability of 0.35.

The same test, now with this note: first compound 0.8 µM.
`Oc1nc(-c2ccc(C(F)(F)F)cc2)nc2c1CSCC2` [XAV939] + O=C(CCCCCCC(=O)Nc1ccccc1)NO [Vorinostat] (partner 1 µM) gave a relative viability of 0.733.

Compound `C=C1C(=O)O[C@@H](CCCCCCCC)[C@@H]1C(=O)O` [C-75] + Nc1nc2[nH]cc(CCc3ccc(C(=O)N[C@@H](CCC(=O)O)C(=O)O)cc3)c2c(=O)[nH]1 [Pemetrexed] (partner 0.2 µM) displayed a relative viability of 0.725.

`Oc1nc(-c2ccc(C(F)(F)F)cc2)nc2c1CSCC2` [XAV939] + O=C(c1cc(Cc2n[nH]c(=O)c3ccccc23)ccc1F)N1CCN(C(=O)C2CC2)CC1 [Olaparib] (partner 8 µM) registered a relative viability of 0.865.

On to `Oc1nc(-c2ccc(C(F)(F)F)cc2)nc2c1CSCC2` [XAV939] + CC(=O)c1c(C)c2cnc(Nc3ccc(N4CCNCC4)cn3)nc2n(C2CCCC2)c1=O [Palbociclib] (partner 0.5 µM), for which the relative viability worked out at 0.35.

On to `C=C1C(=O)O[C@@H](CCCCCCCC)[C@@H]1C(=O)O` [C-75] + CC(=O)c1c(C)c2cnc(Nc3ccc(N4CCNCC4)cn3)nc2n(C2CCCC2)c1=O [Palbociclib] (partner 0.5 µM), for which the relative viability is 0.335.

Still in this test, the particulars now being: first compound 2.53 µM.
`Oc1nc(-c2ccc(C(F)(F)F)cc2)nc2c1CSCC2` [XAV939] + O=C(CCCCCCC(=O)Nc1ccccc1)NO [Vorinostat] (partner 1 µM) had a relative viability of 0.564.

`C=C1C(=O)O[C@@H](CCCCCCCC)[C@@H]1C(=O)O` [C-75] + Nc1nc2[nH]cc(CCc3ccc(C(=O)N[C@@H](CCC(=O)O)C(=O)O)cc3)c2c(=O)[nH]1 [Pemetrexed] (partner 0.2 µM) showed a relative viability of 0.622.

Compound `Oc1nc(-c2ccc(C(F)(F)F)cc2)nc2c1CSCC2` [XAV939] + O=C(c1cc(Cc2n[nH]c(=O)c3ccccc23)ccc1F)N1CCN(C(=O)C2CC2)CC1 [Olaparib] (partner 8 µM) yielded a relative viability of 0.855.

With `Oc1nc(-c2ccc(C(F)(F)F)cc2)nc2c1CSCC2` [XAV939] + CC(=O)c1c(C)c2cnc(Nc3ccc(N4CCNCC4)cn3)nc2n(C2CCCC2)c1=O [Palbociclib] (partner 0.5 µM), the relative viability is 0.336.

As for `C=C1C(=O)O[C@@H](CCCCCCCC)[C@@H]1C(=O)O` [C-75] + CC(=O)c1c(C)c2cnc(Nc3ccc(N4CCNCC4)cn3)nc2n(C2CCCC2)c1=O [Palbociclib] (partner 0.5 µM), the relative viability came out at 0.349.

The test is the same for the next values; noted with them: first compound 8 µM.
The compound `C=C1C(=O)O[C@@H](CCCCCCCC)[C@@H]1C(=O)O` [C-75] + Nc1nc2[nH]cc(CCc3ccc(C(=O)N[C@@H](CCC(=O)O)C(=O)O)cc3)c2c(=O)[nH]1 [Pemetrexed] (partner 0.2 µM) displayed a relative viability of 0.673.
